Data as given in patent publication US10040806B2, “Microbiocidally active benzoxaboroles” (Syngenta Participations AG, priority 2014, dated 2018).

How the values were obtained:
[1] = system: Mycosphaerella graminicola (Septoria tritici); test: Mycosphaerella graminicola (Septoria tritici)/liquid culture (Septoria blotch); type: cell-based; settings: Zymoseptoria tritici, liquid culture, PDB, inhibition of growth determined photometrically 4-5 days after application, read-out: disease control
[2] = system: Monographella nivalis (Microdochium nivale); test: Monographella nivalis (Microdochium nivale)/liquid culture (foot rot cereals); type: cell-based; settings: liquid culture, PDB, inhibition of growth determined photometrically 4-5 days after application, read-out: disease control
Pythium ultimum = test: Pythium ultimum/liquid culture (seedling damping off); type: cell-based; settings: Globisporangium ultimum, liquid culture, potato dextrose broth, inhibition of growth determined photometrically 2-3 days after application, read-out: disease control
[3] = system: Mycosphaerella arachidis (Cercospora arachidicola); test: Mycosphaerella arachidis (Cercospora arachidicola)/liquid culture (early leaf spot); type: cell-based; settings: liquid culture, PDB, inhibition of growth determined photometrically 4-5 days after application, read-out: disease control

Structure (SMILES)	inhibition of growth at 20 ppm [1] [%]	inhibition of growth at 20 ppm [2] [%]	melting point [°C]	inhibition of growth at 20 ppm (Pythium ultimum) [%]	inhibition of growth at 20 ppm [3] [%]
OB1OCc2cc3c(cc21)OC(F)(F)O3 [Compound 1]	≥ 80	≥ 80	147 to 149	≥ 80	≥ 80
COc1cc2c(cc1Cl)COB2O [Compound 5, 5-chloro-1-hydroxy-6-methoxy-3H-2,1-benzoxaborole]	≥ 80	≥ 80	–	≥ 80	≥ 80
OB1OCc2cc(Cl)c(O)cc21 [Compound 6, 5-chloro-1-hydroxy-3H-2,1-benzoxaborol-6-ol]	≥ 80	≥ 80	194 to 195	≥ 80	≥ 80
CCOc1cc2c(cc1Cl)COB2O [Compound 9, 5-chloro-6-ethoxy-1-hydroxy-3H-2,1-benzoxaborole]	≥ 80	≥ 80	146 to 148	≥ 80	≥ 80
CCOc1cc2c(cc1C)COB2O [Compound 38, 6-ethoxy-1-hydroxy-5-methyl-3H-2,1-benzoxaborole]	≥ 80	≥ 80	97 to 100	≥ 80	≥ 80
OB1OCc2cc(Cl)c(O)c(Cl)c21 [Compound 94, 5,7-dichloro-1-hydroxy-3H-2,1-benzoxaborol-6-ol]	≥ 80	≥ 80	174 to 176	≥ 80	≥ 80
CCOc1c(Cl)cc2c(c1Cl)B(O)OC2 [Compound 95, 5,7-dichloro-6-ethoxy-1-hydroxy-3H-2,1-benzoxaborole]	≥ 80	≥ 80	109 to 111	≥ 80	≥ 80
COc1cc(Cl)cc2c1B(O)OC2 [Compound 104, 5-chloro-1-hydroxy-7-methoxy-3H-2,1-benzoxaborole]	≥ 80	≥ 80	146 to 148	≥ 80	≥ 80
